Experimental data taken from patent US12593845B2 (priority 2019, dated 2026).

Experiments:
[1] = test system: wheat powdery mildew pathogen (Erysiphe graminis f. sp. tritici); test: Wheat powdery mildew control test; type: in vivo; conditions: Blumeria graminis, 144 h; 125 ppm drug solution sprayed onto wheat seedlings (Chihoku); lesion area ratio 6 days after inoculation
Protocol: (§1) 5 parts by weight of the dihydropyrimidine compound of the present invention, 93.5 parts by weight of N,N-dimethylformamide, and 1.5 parts by weight of polyoxyethylene sorbitan monolaurate (TWEEN® 20) were mixed and dissolved to obtain an emulsion (I) including 5% of an active ingredient.
(§2) The control value was calculated by the following expression. Control value (%)=100−{lesion area ratio in treated group/lesion area ratio in untreated group}×100 [Expression 1]
Water was added to the emulsion (I) such that the concentration of the dihydropyrimidine compound reached 125 ppm to dissolve the emulsion, and a drug solution was obtained. Subsequently, the drug solution was sprayed onto wheat seedlings (variety: “Chihoku”, leaf stage: 1 to 2) cultivated in seedling pots. After air drying, conidiospores of a wheat powdery mildew pathogen (Erysiphe graminis f. sp. tritici) were sprinkled thereon for inoculation (treated group). As a control, wheat seedlings that were not sprayed with the drug solution were inoculated in the same manner as described above (untreated group). The seedlings were left to stand in a greenhouse at 20° C.
On the 6 days after the inoculation, the leaves of the wheat seedlings were visually observed to determine the lesion area ratio, and the control value was calculated.

[2] = test system: apple scab pathogen (Venturia inaequalis); test: Apple scab control test; type: in vivo; conditions: 336 h, 125 ppm drug solution sprayed onto apple seedlings (Orin), lesion area ratio 2 weeks after inoculation
Protocol: as §1, §2
Water was added to the emulsion (I) such that the concentration of the dihydropyrimidine compound reached 125 ppm to dissolve the emulsion, and a drug solution was obtained. Subsequently, the drug solution was sprayed onto apple seedlings (variety: “Orin”, leaf stage: 3 to 4) cultivated in seedling pots. After air drying, the seedlings were inoculated with conidiospores of an apple scab pathogen (Venturia inaequalis) (treated group). As a control, apple seedlings that were not sprayed with the drug solution were inoculated in the same manner (untreated group). The seedlings were left to stand in a humidified room at 20° C. using a 12 hour light/dark cycle.
On the day 2 weeks after the inoculation, the leaves of the apple seedlings were visually observed to determine the lesion area ratio, and the control value was calculated.

Aspergillus niger = test: Antimicrobial test against Aspergillus niger; type: cell-based; conditions: 96 h, Vogel medium, 25° C., 4 days in the dark, turbidity at 405 nm, read-out: growth inhibition rate
Protocol: Spores of Aspergillus niger were added to and dispersed in a Vogel medium, and a dihydropyrimidine compound dissolved in dimethyl sulfoxide was added and mixed thereto at 25 ppm. The resulting solution was dispensed onto a 96-well microplate and cultivated in the dark at 25° C. for 4 days.
After the cultivation, the turbidity at a wavelength of 405 nm was measured by a microplate reader and compared with that in the untreated case to determine the growth inhibition of Aspergillus niger (%) was determined.

[3] = test system: wheat powdery mildew pathogen (Erysiphe graminis f. sp. tritici); test: Wheat powdery mildew seed treatment test; type: in vivo; conditions: Blumeria graminis, 168 h; seed treatment 100 g/100 kg wheat seeds (Chihoku); inoculation after 8 to 10 days; lesion area ratio 7 days after inoculation
Protocol: as §1, §2
The emulsion (I) was used to treat seeds such that (weight of dihydropyrimidine compound)/(weight of seeds) reached 100 g/100 kg based on the wheat seeds (variety: “Chihoku”). These seeds were disseminated in pots, and after 8 to 10 days, conidiospores of a wheat powdery mildew pathogen (Erysiphe graminis f. sp. tritici) were sprinkled thereon for inoculation (treated group). As a control, wheat seedlings that were not treated with the drug were inoculated in the same manner as described above (untreated group). The seedlings were left to stand in a greenhouse at 20° C.
(§3) On the 7 days after the inoculation, the leaves of the wheat seedlings were visually observed to determine the lesion area ratio, and the control value was calculated.

[4] = test system: wheat powdery mildew pathogen (Erysiphe graminis f. sp. tritici); test: Wheat powdery mildew soil irrigation treatment test; type: in vivo; conditions: Blumeria graminis, 168 h; soil irrigation with 10 ml of 100 ppm drug solution per pot, wheat (Chihoku); inoculation after 8 to 10 days; lesion area ratio 7 days after inoculation
Protocol: as §1, §2
Pots (5.5 cm×5.5 cm) in which wheat seeds (variety: “Chihoku”) were disseminated were irrigated with 10 ml of a drug solution prepared by adding water to the emulsion (I) so as to have a concentration of the dihydropyrimidine compound of 100 ppm. After 8 to 10 days, conidiospores of a wheat powdery mildew pathogen (Erysiphe graminis f. sp. tritici) were sprinkled thereon for inoculation (treated group). As a control, wheat seedlings that were not treated with the drug were inoculated in the same manner as described above (untreated group). The seedlings were left to stand in a greenhouse at 20° C.
as §3

| SMILES | pest or weed control at 125 ppm [1] [%] | pest or weed control at 125 ppm [2] [%] | inhibition at 25 ppm (Aspergillus niger) [%] | pest or weed control at 100 g/100 kg seed [3] [%] | pest or weed control at 100 ppm [4] [%] |
| --- | --- | --- | --- | --- | --- |
| CCO/N=C(\C)c1cn(CC(O)c2cc(F)ccc2OC)c(=O)n(C[C@H](C)NC(=O)C(C)C)c1=O (stereo partly shown) [A-42] | ≥ 75 | ≥ 75 | ≥ 50 | – | – |
| COc1ccc(F)cc1C(Cn1cc(/C(C)=N/OC(C)C)c(=O)n(CCNC(=O)C(C)C)c1=O)OCCC#N (stereo not shown) [A-101] | ≥ 75 | ≥ 75 | ≥ 50 | – | – |
| CCON=Cc1cn(CC(OCCC#N)c2cc(F)ccc2OC)c(=O)n(CCNC(=O)OC(C)(C)C)c1=O (stereo not shown) [A-18] | ≥ 75 | ≥ 75 | – | – | – |
| CCCC(=O)N[C@@H](C)Cn1c(=O)c(/C(C)=N/OC(C)C)cn(CC(O)c2cc(F)ccc2OC)c1=O (stereo partly shown) [C-135] | – | – | ≥ 50 | ≥ 75 | – |
| CCO/N=C(\C)c1cn(CC(OC)c2cc(F)ccc2OC)c(=O)n(CCN(C)C(=O)C(C)C)c1=O (stereo not shown) [A-97] | ≥ 75 | ≥ 75 | ≥ 50 | – | – |
| CCN(CC)C(=O)N[C@H](Cn1c(=O)c(/C(C)=N/OC(C)C)cn(CC(O)c2cc(F)ccc2OC)c1=O)C(C)C (stereo partly shown) [C-67] | – | – | – | – | ≥ 75 |
| CCO/N=C(\C)c1cn(CC(O)c2cc(F)ccc2OC)c(=O)n(CCNC(=O)C(C)C)c1=O (stereo not shown) [A-37, N-(2-(5-(1-(ethoxyimino)ethyl)-3-(2-(5-fluoro-2-methoxyphenyl)-2-hydroxyethyl)-2,6-dioxo-3,6-dihydropyrimidin-1(2H)-yl)ethyl)isobutyramide] | – | ≥ 75 | ≥ 50 | – | – |
| COc1ccc(F)cc1C(O)Cn1cc(/C(C)=N/OC(C)C)c(=O)n(C[C@H](CCSC)NC(=O)C(C)C)c1=O (stereo partly shown) [C-176] | – | – | ≥ 50 | ≥ 75 | – |
| COc1ccc(F)cc1C(O)Cn1cc(C=NOC(C)C)c(=O)n(C(C)CNC(=O)C(C)C)c1=O (stereo not shown) [A-79] | ≥ 75 | ≥ 75 | ≥ 50 | – | – |
| CCO/N=C(\C)c1cn(CC(OC(C)=O)c2cc(F)ccc2OC)c(=O)n(CCNC(=O)C(C)C)c1=O (stereo not shown) [A-88] | – | ≥ 75 | ≥ 50 | – | – |
| CCON=Cc1cn(CC(O)c2cc(F)ccc2OC)c(=O)n(CC(C)(C)NC(=O)C(C)C)c1=O (stereo not shown) [A-92] | ≥ 75 | – | – | – | – |
| CCON=Cc1cn(CC(O)c2cc(F)ccc2OC)c(=O)n(C(C)C(=O)NC(C)C)c1=O (stereo not shown) [A-94] | ≥ 75 | ≥ 75 | – | – | – |
| CCN(C)C(=O)N[C@H](Cn1c(=O)c(/C(C)=N/OC(C)C)cn(CC(O)c2cc(F)ccc2OC)c1=O)C(C)C (stereo partly shown) [C-89] | – | – | ≥ 50 | ≥ 75 | – |
| COc1ccc(F)cc1C(Cn1cc(C=NOC(C)C)c(=O)n(C(C)C(=O)N2CCC2)c1=O)OCCC#N (stereo not shown) [A-81] | ≥ 75 | ≥ 75 | – | – | – |
| COc1ccccc1C(O)Cn1cc(/C(C)=N/OC(C)C)c(=O)n(C[C@@H](NC(=O)c2ccccc2)C(C)C)c1=O (stereo partly shown) [C-85] | – | – | – | ≥ 75 | – |
| CCCC(=O)N[C@H](Cn1c(=O)c(/C(C)=N/OC(C)C)cn(CC(O)c2cc(F)ccc2OC)c1=O)C(C)C (stereo partly shown) [C-115] | – | – | ≥ 50 | ≥ 75 | – |
| COc1ccc(F)cc1C(O)Cn1cc(C=NOC(C)C)c(=O)n(C(C)C(=O)N2CCC2)c1=O (stereo not shown) [A-86] | ≥ 75 | – | – | – | – |
| CCO/N=C(\C)c1nn(CC(OCCC#N)c2cc(F)ccc2OC)c(=O)n(C(C)C(=O)NC(C)C)c1=O (stereo not shown) [B-3] | ≥ 75 | ≥ 75 | – | – | – |
| COc1ccc(F)cc1C(O)Cn1cc(/C(C)=N/OC(C)C)c(=O)n(C[C@H](C)NC(=O)NC(C)C)c1=O (stereo partly shown) [C-191] | – | – | – | – | ≥ 75 |

| SMILES | pest or weed control at 125 ppm [1] [%] | pest or weed control at 125 ppm [2] [%] | inhibition at 25 ppm (Aspergillus niger) [%] | pest or weed control at 100 g/100 kg seed [3] [%] | pest or weed control at 100 ppm [4] [%] |
| --- | --- | --- | --- | --- | --- |
| COc1ccc(F)cc1C(O)Cn1cc(C=NOC(C)C)c(=O)n(C(C)C(=O)N2CCOCC2)c1=O (stereo not shown) [A-71] | ≥ 75 | ≥ 75 | – | – | – |
| COc1ccc(F)cc1C(O)Cn1cc(/C(C)=N/OC(C)C)c(=O)n(CCNC(=O)C(C)C)c1=O (stereo not shown) [A-102] | ≥ 75 | ≥ 75 | ≥ 50 | – | – |
| CCON=C(C)c1cn(CC(O)c2cc(F)ccc2OC)c(=O)n(C(C)C(=O)NC(C)C)c1=O (stereo not shown) [A-31] | ≥ 75 | ≥ 75 | – | – | – |
| COc1ccc(F)cc1C(Cn1cc(C=NOC(C)C)c(=O)n(CC(=O)NC(C)C)c1=O)OCCC#N (stereo not shown) [A-84] | ≥ 75 | ≥ 75 | – | – | – |
| COc1ccc(F)cc1C(O)Cn1cc(/C(C)=N/OC(C)C)c(=O)n(C[C@@H](NC(=O)C(C)(C)C)C(C)C)c1=O (stereo partly shown) [C-112] | – | – | ≥ 50 | ≥ 75 | – |
| CCOc1ccccc1C(O)Cn1cc(/C(C)=N/OC(C)C)c(=O)n(C[C@H](C)NC(=O)C(C)C)c1=O (stereo partly shown) [A-51] | ≥ 75 | ≥ 75 | ≥ 50 | – | – |
| C/C(=N\OC(C)C)c1cn(CC(O)c2ccccc2OC(C)C)c(=O)n(C[C@H](C)NC(=O)C(C)C)c1=O (stereo partly shown) [A-49] | ≥ 75 | ≥ 75 | – | – | – |
| COc1cc(F)c(F)cc1C(O)Cn1cc(/C(C)=N/OC(C)C)c(=O)n(C[C@H](C)NC(=O)C(C)C)c1=O (stereo partly shown) [C-182] | – | – | ≥ 50 | – | ≥ 75 |
| CCON=Cc1cn(CC(OCCC#N)c2cc(F)ccc2OC)c(=O)n(CC(C)(C)C(=O)NC(C)C)c1=O (stereo not shown) [A-7] | – | ≥ 75 | ≥ 50 | – | – |
| CCO/N=C(\C)c1cn(/C=C(\OC(=O)C(C)C)c2cc(F)ccc2OC)c(=O)n(C[C@H](C)NC(=O)C(C)C)c1=O [A-46] | ≥ 75 | ≥ 75 | – | – | – |
| COc1ccc(F)cc1C(O)Cn1cc(C=NOC(C)C)c(=O)n(C(C)C(=O)N2CCCCC2)c1=O (stereo not shown) [A-90] | ≥ 75 | ≥ 75 | ≥ 50 | – | – |
| CCO/N=C(\C)c1cn(CC(OC)c2cc(F)ccc2OC)c(=O)n(CCNC(=O)C(C)C)c1=O (stereo not shown) [A-96] | ≥ 75 | ≥ 75 | ≥ 50 | – | – |
| CCC(=O)N[C@@H](CC)Cn1c(=O)c(/C(C)=N/OC(C)C)cn(CC(O)c2cc(F)ccc2OC)c1=O (stereo partly shown) [C-56] | – | – | ≥ 50 | ≥ 75 | – |
| CCO/N=C(\C)c1cn(CC(OCCC#N)c2cc(F)ccc2OC)c(=O)n(CCNC(=O)C(C)C)c1=O (stereo not shown) [A-38, N-(2-(3-(2-(2-cyanoethoxy)-2-(5-fluoro-2-methoxyphenyl)ethyl)-5-(1-(ethoxyimino)ethyl)-2,6-dioxo-3,6-dihydropyrimidin-1(2H)-yl)ethyl)isobutyramide] | ≥ 75 | ≥ 75 | ≥ 50 | – | – |
| CCON=Cc1cn(CCc2ccccc2OC)c(=O)n(C(C)C(=O)N2CCCCC2)c1=O (stereo not shown) [A-105] | ≥ 75 | ≥ 75 | – | – | – |
| CC[C@@H](Cn1c(=O)c(/C(C)=N/OC(C)C)cn(CC(O)c2cc(F)ccc2OC)c1=O)NC(=O)N(C)C (stereo partly shown) [C-54] | – | – | ≥ 50 | ≥ 75 | – |
| COc1ccccc1C(O)Cn1cc(/C(C)=N/OC(C)C)c(=O)n(C[C@@H](NC(=O)CC(C)C)C(C)C)c1=O (stereo partly shown) [C-97] | – | – | – | ≥ 75 | – |
| CCO/N=C(\C)c1nn(CC(O)c2cc(F)ccc2OC)c(=O)n(C[C@H](C)NC(=O)C(C)C)c1=O (stereo partly shown) [B-1] | ≥ 75 | – | – | – | – |
